This is an account of results in patent US9943504B2, “Arginine methyltransferase inhibitors and uses thereof” (Epizyme, Inc., priority 2013, dated 2018).

In this assay the test system is mono-methyl arginine in RKO cells. Put plainly: RKO Methylation Assay (In Cell Western). The format is cell-based. The following applies: 72 hours, percent activation. An excerpt:
RKO adherent cells were purchased from ATCC (American Type Culture Collection), Manassas, Va., USA. DMEM/Glutamax medium, penicillin-streptomycin, heat inactivated fetal bovine serum, 0.05% trypsin and D-PBS were purchased from Life Technologies, Grand Island, N.Y., USA. Odyssey blocking buffer, 800CW goat anti-rabbit IgG (H+L) antibody, and Licor Odyssey infrared scanner were purchased from Licor Biosciences, Lincoln, Nebr., USA. Mono-methyl arginine antibody was purchased from Cell Signaling Technology, Danvers, Mass., USA. Methanol was purchased from VWR, Franklin, Mass., USA. 10% Tween 20 was purchased from KPL, Inc., Gaithersburg, Md., USA. DRAQ5 was purchased from Biostatus Limited, Leicestershire, UK.
RKO adherent cells were maintained in growth medium (DMEM/Glutamax medium supplemented with 10% v/v heat inactivated fetal bovine serum and 100 units/mL penicillin-streptomycin) and cultured at 37° C. under 5% CO2.
Cell Treatment, in Cell Western (ICW) for Detection of Mono-Methyl Arginine and DNA Content.
RKO cells were seeded in assay medium at a concentration of 20,000 cells per mL to a poly-D-lysine coated 384 well culture plate (BD Biosciences 356697) with 50 μL per well. Compound (100 nL) from a 96-well source plate was added directly to 384 well cell plate. Plates were incubated at 37° C., 5% CO2 for 72 hours. After three days of incubation, plates were brought to room temperature outside of the incubator for ten minutes and blotted on paper towels to remove cell media. 50 μL of ice cold 100% methanol was added directly to each well and incubated for 30 min at room temperature. After 30 min, plates were transferred to a Biotek EL406 plate washer and washed 2 times with 100 μL per well of wash buffer (1×PBS). Next 60 μL per well of Odyssey blocking buffer (Odyssey Buffer with 0.1% Tween 20 (v/v)) were added to each plate and incubated 1 hour at room temperature. Blocking buffer was removed and 20 μL per well of primary antibody was added (mono-methyl arginine diluted 1:200 in Odyssey buffer with 0.1% Tween 20 (v/v)) and plates were incubated overnight (16 hours) at 4° C. Plates were washed 5 times with 100 μL per well of wash buffer. Next 20 μL per well of secondary antibody was added (1:200 800CW goat anti-rabbit IgG (H+L) antibody, 1:1000 DRAQ5 (Biostatus limited) in Odyssey buffer with 0.1% Tween 20 (v/v)) and incubated for 1 hour at room temperature. The plates were washed 5 times with 100 μL per well wash buffer then 2 times with 100 μL per well of water. Plates were allowed to dry at room temperature then imaged on the Licor Odyssey machine which measures integrated intensity at 700 nm and 800 nm wavelengths. Both 700 and 800 channels were scanned.
First, the ratio for each well was determined by:
Each plate included fourteen control wells of DMSO only treatment (minimum activation) as well as fourteen control wells for maximum activation treated with 20 μM of a reference compound. The average of the ratio values for each control type was calculated and used to determine the percent activation for each test well in the plate. Reference compound was serially diluted three-fold in DMSO for a total of nine test concentrations, beginning at 20 μM. Percent activation was determined and EC30 curves were generated using triplicate wells per concentration of compound.

As for `CC(C)COc1ccc2[nH]nc(CN(C)CCN)c2c1` [Compound 2, N^1-((5-iso-butoxy-1H-indazol-3-yl)methyl)-N^1-methylethane-1,2-diamine], the “RGG ICW EC30” value was “B (“B” indicates an EC30 of 3.01-12.00 μM)”. On to `CNCCN(C)Cc1nn(C)c2ccc(OCC(C)C)cc12` [Compound 3, N^1-((5-iso-butoxy-1-methyl-1H-indazol-3-yl)methyl)-N^1,N^2-dimethylethane-1,2-diamine], for which the “RGG ICW EC30” value is “C (“C” indicates an EC30 ≥ 12.01 μM)”. The result for `CNCCN(C)Cc1n[nH]c2ccc(OC(C)C(C)C)cc12` (centres unmarked) [Compound 4] reads “A (“A” indicates an EC30 ≤ 3.00 μM)”; that for `CNCCN(C)Cc1n[nH]c2ccc(OCCOC)cc12` [Compound 5, N^1-((5-(2-methoxyethoxy)-1H-indazol-3-yl)methyl)-N^1,N^2-dimethylethane-1,2-diamine], “B (“B” indicates an EC30 of 3.01-12.00 μM)”; that for `CNCCN(C)Cc1n[nH]c2ccc(OCCCOC)cc12` [Compound 6], “A (“A” indicates an EC30 ≤ 3.00 μM)”.

On to `CNCCN(C)Cc1n[nH]c2ccc(OCCc3ccccc3)cc12` [Compound 7], for which the “RGG ICW EC30” value is “A (“A” indicates an EC30 ≤ 3.00 μM)”. Regarding `CNCCN(C)Cc1n[nH]c2ccc(OCCC(C)C)cc12` [Compound 8], the “RGG ICW EC30” value is reported as “A (“A” indicates an EC30 ≤ 3.00 μM)”. For `CNCCN(C)Cc1n[nH]c2ccc(OC(C)Cc3ccccc3)cc12` (centres unmarked) [Compound 9], the “RGG ICW EC30” value is recorded as “B (“B” indicates an EC30 of 3.01-12.00 μM)”. For the compound `CNCCN(C)Cc1n[nH]c2ccc(Oc3ccccc3)cc12` [Compound 10, N^1,N^2-dimethyl-N^1-((5-phenoxy-1H-indazol-3-yl)methyl)ethane-1,2-diamine], the “RGG ICW EC30” value was “B (“B” indicates an EC30 of 3.01-12.00 μM)”.

On to `CNCCN(C)Cc1n[nH]c2ccc(OC3CCCC3)cc12` [Compound 11], for which the “RGG ICW EC30” value was “A (“A” indicates an EC30 ≤ 3.00 μM)”. For the compound `CNCCN(C)Cc1n[nH]c2ccc(OCc3ccccn3)cc12` [Compound 12], the “RGG ICW EC30” value is recorded as “B (“B” indicates an EC30 of 3.01-12.00 μM)”. Turning to `CNCCN(C)Cc1n[nH]c2ccc(OCc3ccc(C#N)cc3)cc12` [Compound 13], the “RGG ICW EC30” value is given as “B (“B” indicates an EC30 of 3.01-12.00 μM)”. In the case of `CNCCN(C)Cc1n[nH]c2ccc(OCc3cccc(C#N)c3)cc12` [Compound 14], the “RGG ICW EC30” value is “B (“B” indicates an EC30 of 3.01-12.00 μM)”. As for `CNCCN(C)Cc1n[nH]c2ccc(OCc3cc[nH]n3)cc12` [Compound 17], the “RGG ICW EC30” value is “C (“C” indicates an EC30 ≥ 12.01 μM)”.
